The values below come from US8552220B2, “Therapeutic agent for Alzheimer's disease” (Tokyo Institute of Technology, priority 2008, dated 2013).

Molecules are shown by their SMILES.

A word on the melting point: it is the temperature, or range, at which the solid turns liquid.

Consider `CN(C)CCOc1ccc(/C=C/C(=O)CC(=O)/C=C/c2ccc(O)cc2)c(Cl)c1` [CU551, (1E,6E)-1-[2-chloro-4-(2-dimethylaminoethoxy)phenyl]-7-(4-hydroxyphenyl)hepta-1,6-diene-3,5-dione], for which the melting point is 170 to 173 °C.

In turn, `CN(C)CCOc1ccc(Br)c(/C=C/C(=O)CC(=O)/C=C/c2ccc(O)cc2)c1` [CU552, (1E,6E)-1-[2-bromo-5-(2-dimethylaminoethoxy)phenyl]-7-(4-hydroxyphenyl)hepta-1,6-diene-3,5-dione] displayed a melting point of 163 to 167 °C.

Consider `CN(C)c1ccc(/C=C/C(=O)CC(=O)/C=C/c2ccc(O)cc2)c(C(F)(F)F)c1` [CU555, (1E,6E)-1-(4-dimethylamino-2-trifluoromethylphenyl)-7-(4-hydroxyphenyl)hepta-1,6-diene-3,5-dione], for which the melting point fell in the range of 195 to 199 °C.

For the compound `CN(C)c1ccc(/C=C/C(=O)CC(=O)CCc2ccc(O)cc2)c(C(F)(F)F)c1` [CU556, (E)-1-(4-dimethylamino-2-trifluoromethylphenyl)-7-(4-hydroxyphenyl)hept-1-ene-3,5-dione], the melting point lay within 110 to 114 °C.

`COc1cc(O)ccc1/C=C/C(=O)CC(=O)/C=C/c1cc(OCc2ccccc2)ccc1-c1ccccc1` [CU559, (1E,6E)-1-(4-benzyloxybiphenyl-2-yl)-7-(4-hydroxy-2-methoxyphenyl)hepta-1,6-diene-3,5-dione] yielded a melting point of 175 to 180 °C.

`COc1cc(O)ccc1/C=C/C(=O)CC(=O)/C=C/c1cc(O)ccc1Br` [CU561, (1E,6E)-1-(2-bromo-5-hydroxyphenyl)-7-(4-hydroxy-2-methoxyphenyl)hepta-1,6-diene-3,5-dione] registered a melting point of 92 to 98 °C.

`O=C(/C=C/c1ccc2cc[nH]c2c1)CC(=O)/C=C/c1cc(O)ccc1Br` [CU562, (1E,6E)-1-(2-bromo-5-hydroxyphenyl)-7-(1H-indol-6-yl)hepta-1,6-diene-3,5-dione] gave a melting point of 196 to 200 °C.

With `O=C(/C=C/c1ccc2cc[nH]c2c1)CC(=O)/C=C/c1cc(OCc2ccccc2)ccc1-c1ccccc1` [CU566, (1E,6E)-1-(4-benzyloxybiphenyl-2-yl)-7-(1H-indol-6-yl)hepta-1,6-diene-3,5-dione], the melting point fell in the range of 178 to 183 °C.

`COc1cc(O)ccc1/C=C/C(=O)CC(=O)/C=C/c1ccccc1C(F)(F)F` [CU574, (1E,6E)-1-(4-hydroxy-2-methoxyphenyl)-7-(2-trifluoromethylphenyl)hepta-1,6-diene-3,5-dione] gave a melting point of 176 to 180 °C.

As for `COc1cc(O)ccc1/C=C/C(=O)CC(=O)/C=C/c1ccc(N(C)C)cc1Cl` [CU581, (1E,6E)-1-(2-chloro-4-dimethylaminophenyl)-7-(4-hydroxy-2-methoxyphenyl)hepta-1,6-diene-3,5-dione], the melting point fell in the range of 187 to 192 °C.

On to `COc1cc(O)ccc1/C=C/C(=O)CC(=O)/C=C/c1cc(O)ccc1-c1ccccc1` [CU582, (1E,6E)-1-(4-hydroxybiphenyl-2-yl)-7-(4-hydroxy-2-methoxyphenyl)hepta-1,6-diene-3,5-dione], for which the melting point lay within 108 to 114 °C.

As for `CN(C)c1ccc(/C=C/C(=O)CC(=O)/C=C/c2ccc3cc[nH]c3c2)c(Cl)c1` [CU584, (1E,6E)-1-(2-chloro-4-dimethylaminophenyl)-7-(1H-indol-6-yl)hepta-1,6-diene-3,5-dione], the melting point lay within 180 to 185 °C.

The compound `COc1cc(O)ccc1/C=C/C(=O)CC(=O)/C=C/c1cc(O)ccc1[N+](=O)[O-]` [CU585, (1E,6E)-1-(4-hydroxy-2-methoxyphenyl)-7-(5-hydroxy-2-nitrophenyl)hepta-1,6-diene-3,5-dione] came in with a melting point of 119 to 123 °C.

Take `O=C(/C=C/c1ccc2cc[nH]c2c1)CC(=O)/C=C/c1cc(OCc2ccccc2)ccc1[N+](=O)[O-]` [CU588, (1E,6E)-1-(5-benzyloxy-2-nitrophenyl)-7-(1H-indol-6-yl)hepta-1,6-diene-3,5-dione]: the melting point lay in the range of 181 to 186 °C.

Regarding `CN(C)c1ccc(/C=C/C(=O)CC(=O)/C=C/c2ccc3cc[nH]c3c2)c([N+](=O)[O-])c1` [CU592, (1E,6E)-1-(4-dimethylamino-2-nitrophenyl)-7-(1H-indol-6-yl)hepta-1,6-diene-3,5-dione], the melting point was in the range of 196 to 201 °C.

As to `COc1cc(O)ccc1/C=C/C(=O)CC(=O)/C=C/c1cc(OCc2ccccc2)ccc1[N+](=O)[O-]` [CU594, (1E,6E)-1-(5-benzyloxy-2-nitrophenyl)-7-(4-hydroxy-2-methoxyphenyl)hepta-1,6-diene-3,5-dione], the melting point fell in the range of 183 to 186 °C.

With `O=C(/C=C/c1ccc2cc[nH]c2c1)CC(=O)/C=C/c1cc(O)ccc1[N+](=O)[O-]` [CU596, (1E,6E)-1-(5-hydroxy-2-nitrophenyl)-7-(1H-indol-6-yl)hepta-1,6-diene-3,5-dione], the melting point fell in the range of 204 to 207 °C.

With `COc1cc(O)ccc1/C=C/C(=O)CC(=O)/C=C/c1ccc(O)cc1Cl` [CU600, (1E,6E)-1-(2-chloro-4-hydroxyphenyl)-7-(4-hydroxy-2-methoxyphenyl)hepta-1,6-diene-3,5-dione], the melting point was 206 to 211 °C.

As to `O=C(/C=C/c1ccc2cc[nH]c2c1)CC(=O)/C=C/c1ccc(O)cc1Cl` [CU601, (1E,6E)-1-(2-chloro-4-hydroxyphenyl)-7-(1H-indol-6-yl)hepta-1,6-diene-3,5-dione], the melting point lay within 182 to 186 °C.

Compound `COc1cc(O)ccc1/C=C/C(=O)CC(=O)/C=C/c1ccc(N(C)C)cc1[N+](=O)[O-]` [CU603, (1E,6E)-1-(4-dimethylamino-2-nitrophenyl)-7-(4-hydroxy-2-methoxyphenyl)hepta-1,6-diene-3,5-dione] displayed a melting point of 223 to 226 °C.

`O=C(/C=C/c1ccc2cc[nH]c2c1)CC(=O)/C=C/c1cc(O)ccc1-c1ccccc1` [CU604, (1E,6E)-1-(4-hydroxybiphenyl-2-yl)-7-(1H-indol-6-yl)hepta-1,6-diene-3,5-dione] showed a melting point of 185 to 191 °C.

In turn, `COc1ccc(O)cc1/C=C/C(=O)CC(=O)/C=C/c1cc(O)ccc1Br` [CU608, (1E,6E)-1-(2-bromo-5-hydroxyphenyl)-7-(5-hydroxy-2-methoxyphenyl)hepta-1,6-diene-3,5-dione] returned a melting point of 90 to 96 °C.

`CN(C)c1ccc(/C=C/C(=O)CC(=O)/C=C/c2cc(O)ccc2Br)c(Cl)c1` [CU609, (1E,6E)-1-(2-bromo-5-hydroxyphenyl)-7-(2-chloro-4-dimethylaminophenyl)hepta-1,6-diene-3,5-dione] registered a melting point of 209 to 214 °C.

In the case of `O=C(/C=C/c1ccc(O)cc1Cl)CC(=O)/C=C/c1cc(O)ccc1[N+](=O)[O-]` [CU611, (1E,6E)-1-(2-chloro-4-hydroxyphenyl)-7-(5-hydroxy-2-nitrophenyl)hepta-1,6-diene-3,5-dione], the melting point was 132 to 136 °C.

For `O=C(/C=C/c1cc(O)ccc1Br)CC(=O)/C=C/c1cc(O)ccc1Br` [CU614, (1E,6E)-1,7-bis(2-bromo-5-hydroxyphenyl)hepta-1,6-diene-3,5-dione], the melting point is 239 to 243 °C.

`O=C(/C=C/c1cc(O)ccc1Br)CC(=O)/C=C/c1ccccc1C(F)(F)F` [CU615, (1E,6E)-1-(2-bromo-5-hydroxyphenyl)-7-(2-trifluoromethylphenyl)hepta-1,6-diene-3,5-dione] displayed a melting point of 66 to 70 °C.

Turning to `O=C(/C=C/c1cc(O)ccc1Br)CC(=O)/C=C/c1cc(O)ccc1-c1ccccc1` [CU616, (1E,6E)-1-(2-bromo-5-hydroxyphenyl)-7-(4-hydroxybiphenyl-2-yl)hepta-1,6-diene-3,5-dione], the melting point fell in the range of 101 to 104 °C.

Compound `O=C(/C=C/c1ccc(O)cc1)CC(=O)/C=C/c1cc(O)ccc1F` [CU621, (1E,6E)-1-(2-fluoro-5-hydroxyphenyl)-7-(4-hydroxyphenyl)hepta-1,6-diene-3,5-dione] showed a melting point of 205 to 209 °C.

In turn, `O=C(/C=C/c1ccc(O)cc1)CC(=O)/C=C/c1ccccc1F` [CU622, (1E,6E)-1-(2-fluorophenyl)-7-(4-hydroxyphenyl)hepta-1,6-diene-3,5-dione] gave a melting point of 146 to 150 °C.

For `O=C(/C=C/c1ccc(O)cc1)CC(=O)/C=C/c1ccccc1-n1cncn1` [CU623, (1E,6E)-1-[2-(1H-1,2,4-triazol-1-yl)phenyl]-7-(4-hydroxyphenyl)hepta-1,6-diene-3,5-dione], the melting point lay within 186 to 192 °C.

As to `O=C(/C=C/c1ccc(O)cc1)CC(=O)/C=C/c1ccccc1Cl` [CU624, (1E,6E)-1-(2-chlorophenyl)-7-(4-hydroxyphenyl)hepta-1,6-diene-3,5-dione], the melting point is 158 to 161 °C.

With `CCOC(=O)c1cn(-c2ccccc2/C=C/C(=O)CC(=O)/C=C/c2ccc(O)cc2)nn1` [CU625, (1E,6E)-1-[2-(4-ethoxycarbonyl-1H-1,2,3-triazol-1-yl)phenyl]-7-(4-hydroxyphenyl)hepta-1,6-diene-3,5-dione], the melting point was 231 to 237 °C.

In turn, `CCOC(=O)c1cnnn1-c1ccccc1/C=C/C(=O)CC(=O)/C=C/c1ccc(O)cc1` [CU626, (1E,6E)-1-[2-(5-ethoxycarbonyl-1H-1,2,3-triazol-1-yl)phenyl]-7-(4-hydroxyphenyl)hepta-1,6-diene-3,5-dione] displayed a melting point of 93 to 96 °C.

Consider `O=C(/C=C/c1ccc(O)cc1)CC(=O)/C=C/c1cc(F)ccc1-c1ccccc1` [CU640, (1E,6E)-1-(4-fluorobiphenyl-2-yl)-7-(4-hydroxyphenyl)hepta-1,6-diene-3,5-dione], for which the melting point was in the range of 187 to 191 °C.

`O=C(/C=C/c1ccc(O)cc1)CC(=O)/C=C/c1cc(Cl)ccc1-c1ccccc1` [CU641, (1E,6E)-1-(4-chlorobiphenyl-2-yl)-7-(4-hydroxyphenyl)hepta-1,6-diene-3,5-dione] showed a melting point of 193 to 196 °C.

Consider `Cc1ccccc1-c1ccc(O)cc1/C=C/C(=O)CC(=O)/C=C/c1ccc(O)cc1` [CU642, (1E,6E)-1-(4-hydroxy-2′-methylbiphenyl-2-yl)-7-(4-hydroxyphenyl)hepta-1,6-diene-3,5-dione], for which the melting point was 173 to 177 °C.

In turn, `CCOc1ccccc1-c1ccc(O)cc1/C=C/C(=O)CC(=O)/C=C/c1ccc(O)cc1` [CU643, (1E,6E)-1-(2′-ethoxy-4-hydroxybiphenyl-2-yl)-7-(4-hydroxyphenyl)hepta-1,6-diene-3,5-dione] registered a melting point of 111 to 115 °C.
